According to patent US20080248574A1, “ANTAGONISTS OF THE INTERACTION OF MELANOMA INHIBITORY ACTIVITY (MIA) AND P66SHC” (University of Pittsburgh - Of the Commonwealth System of …, priority 2007, published 2008):
Ends that are not written are not given here.

Assays:
[1] = system: HMB2 melanoma cells; assay: H2O2-induced cell death in HMB2 cells, cell viability by MTT absorbance; type: cell-based, human; conditions: 20 μM polypeptide; 50 μM H2O2 two hours later; viability after 24 hours; versus H2O2-treated cells in the absence of polypeptide; p<0.05; FIG. 1
Description: FIG. 1 is a graph showing the percentage of cell viability measured by MTT absorbance in HMB2 melanoma cells that were treated with a polypeptide comprising SEQ ID NO: 1 and SEQ ID NO: 2 (TAT-peptide) and H2O2.
To determine the effect of the administration of a polypeptide comprising SEQ ID NO: 1 on H2O2-induced cell death, HMB2 cells were administered 20 μM of the polypeptide. Two hours following the polypeptide administration, the cells were treated with 50 μM of H2O2. After 24 hours, the cell viability was quantified using MTT absorbance.

[2] = system: MIA-expressing HMB2 human metastatic melanoma cells; assay: Entry of FITC-labeled polypeptide into HMB2 cells (phase contrast and image capture); type: cell-based; conditions: 10 μM FITC-labeled polypeptide, 2.5 hours after addition
Description: The ability of a polypeptide comprising SEQ ID NO: 4 to enter and sensitize MIA-expressing HMB2 human metastatic melanoma cells to oxidative stress-induced death was examined. Cells were treated with 10 μM FITC-labeled polypeptide, followed by phase contrast and image capture.

**Q.** “polypeptide comprising SEQ ID NO: 1: Polypeptide comprising residues 41-60 of the p66shc CH2 domain (SEQ ID NO: 1) and HIV TAT (SEQ ID NO: 2) (SLGPILPPLPGDDSPTTLCSYGRKKRRQRR)” was tested. Which “sensitivity of H2O2-treated cells to H2O2-death (cell viability, MTT absorbance)” value [1] did it give?
**A.** significantly increased

**Q.** With “polypeptide comprising SEQ ID NO: 4: Polypeptide comprising a BRR domain (HIV TAT), spacer and CH2 domain portion of p66shc; FITC-labeled in the test (YGRKKRRQRRGGGSLGPILPPLPGDDSPTTLCS; also: FITC label, position not given here)” as the substance, how does the “transduction of cells with the peptide” value [2] read?
**A.** the majority of the cells were transduced
